Source: patent publication US20240067685A1, “HIDDEN ANTIBIOTICS IN THE HUMAN PROTEOME” (priority 2022, published 2024)
Values after ≈ are worked out from the molar mass of the structure shown. Values joined by “and” are separate entries in the source; they are usually repeats but may differ in a detail not shown here. Equal values may be shown once. Read-outs that look alike come from different tables or passages of the source. Non-standard residues stand in square brackets, D forms with d. Residues, ends and D or L forms follow the SMILES beside them. No end group written: not given here.

What was measured:
[1] = system: A. baumannii ATCC 17878; assay: microbe, parasite or virus in culture; conditions: for MIC values: conventional antimicrobial agents, Acinetobacter baumannii ATCC 17878
Procedure: (§1) Antimicrobial activity. The antimicrobial activity of ApoB-derived encrypted peptides was assessed against a panel of skin pathogens, such as S. epidermidis ATCC 35984, S. aureus ATCC 12600, A. baumannii ATCC 17878, K. pneumoniae ATCC 700603, S. aureus MRSA (WK7-2), E. faecalis ATCC 29212 and P. aeruginosa PAO1 by using the broth microdilution method. ^20 Bacteria were grown to mid-logarithmic phase in MHB at 37° C. […] Following incubation over-night, each sample was diluted, plated on TSA, and incubated at 37° C. for 24 h to count the number of colonies. All experiments were performed in three independent replicates.

[2] = system: K. pneumoniae ATCC 700603; assay: microbe, parasite or virus in culture; conditions: for MIC values: conventional antimicrobial agents, Klebsiella pneumoniae ATCC 700603
Procedure: as §1

[3] = system: S. aureus ATCC 12600; assay: microbe, parasite or virus in culture; conditions: for MIC values: conventional antimicrobial agents, Staphylococcus aureus ATCC 12600
Procedure: as §1

[4] = system: S. epidermidis ATCC 35984; assay: microbe, parasite or virus in culture; conditions: for MIC values: conventional antimicrobial agents, Staphylococcus epidermidis ATCC 35984
Procedure: as §1

[5] = system: E. faecalis ATCC 29212
Procedure: as §1

[6] = system: P. aeruginosa wild-type PAO1
Procedure: as §1

[7] = system: S. aureus MRSA (WKZ-2)
Procedure: as §1

[8] = in vitro; conditions: 25% fetal bovine serum
Procedure: To determine its proteolytic stability, it was assessed whether (ri)-r(P)ApoBS^Pro was less susceptible to serum proteases compared to its parent peptide r(P)ApoBS^Pro.
Stability assay. The resistance to enzymatic degradation assay was performed according to the method described by Powell et al. ^72 Briefly, peptides at 2 mg mL^−1 were exposed to a solution of 25% fetal bovine serum in water. Aliquots were collected after 0.5, 1, 2, and 4 h and 10 μL of trifluoroacetic acid was added to them while the samples were on ice for 10 min. The enzymatic degradation of peptides was followed by reverse-phase high performance liquid chromatography coupled to mass spectrometry (RP-HPLC/ESI-MS). The percentage of remaining peptide was calculated by integrating the area under the curve related to the peptide at time point zero.
where AUCX is the area under the curve of the peak related to the peptide after t h (t=0.5, 1, 2, and 4 h), and AUC0 is the area under the curve of the peak related to the peptide at the beginning of the experiment. Three independent experimental replicates were performed, as previously described. ^73

[9] = system: A. baumannii ATCC 17878; assay: Bacterial resistance development assay (30 days); format: cell-based, Acinetobacter baumannii; conditions: for MIC: Acinetobacter baumannii; for change in MIC (resistance development): 30 days of treatment
Procedure: (§2) Experiments were performed to assess whether prolonged exposure to ApoB-derived encrypted peptides led to the evolution of resistant phenotypes, since classical AMPs are known to be less likely to trigger bacterial resistance than standard antibiotics. ^41 The Gram-negative bacterial pathogen A. baumannii ATCC 17878, and the Gram-positives S. epidermidis ATCC 35984, and S. aureus ATCC 12600 were longitudinally treated with r(P)ApoBL^Pro, r(P)ApoBL^Ala, and r(P)ApoBS^Pro. Control sample groups were treated with the antibiotics colistin, gentamicin, and mupirocin, selected based on their distinct mechanisms of action, the former destabilizing the bacterial extracellular membrane and the latter acting on intracellular targets. […] A. baumannii resistance towards colistin increased by up to 8-fold, whereas S. epidermidis resistance to gentamicin and mupirocin increased by up to 16- and 8-fold, respectively (FIG. 3C). […] For example, both colistin-resistant A. baumannii ATCC 17878 and gentamicin-resistant S. epidermidis ATCC 35984 presented wrinkled borders (FIG. 2E) as opposed to the smooth colonies' characteristic of their morphology at the beginning of the experiment (FIG. 2E).
(§3) Bacterial resistance development assay. S. epidermidis ATCC 35984, S. aureus ATCC 12600 and A. baumannii ATCC 17878 bacterial strains were exposed to colistin, gentamicin, mupirocin, r(P)ApoBL^Pro, r(P)ApoBL^Ala or r(P)ApoBS^Pro. Once, we detected the MIC values for each peptide or antibiotic against the bacterial strains tested, we transferred bacterial cells that survived the exposure at a sub-inhibitory (MIC/2) concentration, and they were re-grown and re-exposed to the respective peptide or antibiotic. ^20 The treatment was repeated for 30 days. Strains that developed resistance to antibiotics presented higher MICs at subsequent passages and the cells from the last passage were isolated and stored for scanning electron microscopy analyses.

[10] = system: S. epidermidis ATCC 35984; assay: Bacterial resistance development assay (30 days); format: cell-based, Staphylococcus epidermidis; conditions: for change in MIC (resistance development): S. epidermidis, 30 days of treatment; for MIC: Staphylococcus epidermidis
Procedure: as §2, §3

[11] = system: S. aureus ATCC 12600; assay: Bacterial resistance development assay (30 days); format: cell-based, Staphylococcus aureus
Procedure: as §2, §3

[12] = Acinetobacter baumannii, ATCC17878, read-out: MIC values
[13] = Klebsiella pneumoniae, ATCC700603, read-out: MIC values
[14] = Staphylococcus aureus, ATCC12600, read-out: MIC values
[15] = Staphylococcus epidermidis, ATCC35984, read-out: MIC values

PHVALKAGKLKFIIPSPKRPVKLLSGGNTLHLVSTTKT [r(P)ApoBL^Ala]
MIC ([1]; ATCC 17878): 2.5 µM | MIC ([2]; ATCC 700603): 5 µM | MIC ([3]; ATCC 12600): 20 µM | MIC ([4]; ATCC 35984): 10 µM | MIC [5]: 10 µM | MIC [6]: 2.5 µM | MIC [7]: 10 µM | stability in the presence of serum [8]: degraded within minutes

CCC[C@@H]1C[C@@H](C(=O)N[C@@H]([C@H]2O[C@H](SC)[C@H](O)[C@@H](O)[C@H]2O)[C@H](C)Cl)N(C)C1 [Clindamycin]
MIC [1, 12]: 62.5 µg/mL | MIC [2, 13]: 125 µg/mL | MIC [3, 14]: 0.5 µg/mL

C/C(=C\C(=O)OCCCCCCCCC(=O)O)C[C@@H]1OC[C@H](C[C@@H]2O[C@H]2[C@@H](C)[C@H](C)O)[C@@H](O)[C@H]1O [mupirocin]
MIC ([9]; ATCC17878, read-out: MIC after 30 days of treatment): 400 µg/mL and 800 µM | MIC ([9]; ATCC17878, read-out: MIC at start of resistance study): 100 µg/mL and 200 µM | change in MIC (resistance development) [10]: up to 8 fold | MIC ([10]; ATCC35984, read-out: MIC after prolonged treatment): 0.012 µg/mL and 0.024 µM | MIC ([10]; ATCC35984, read-out: MIC at start of resistance study): 0.0015 µg/mL and 0.003 µM | MIC before increase ([11]; before the increase): 0.024 μg mL^−1 and 0.048 μmol L^−1 | MIC after increase ([11]; between days 15 and 21 of treatment): 0.19 μg mL^−1 and 0.38 μmol L^−1 | change in MIC (resistance development) ([11]; prolonged treatment): 8 fold

Polymyxin B
MIC values [1]: 6.25 µg/mL | MIC values [2]: 6.25 µg/mL | MIC values [3]: 12.5 µg/mL | MIC values [4]: 3.12 µg/mL

O=C(O)CN(CCN(CC(=O)O)CC(=O)O)CC(=O)O [EDTA]
MIC values [1]: 24.5 µg/mL (≈ 83.8 µM) | MIC values [2]: 49 µg/mL (≈ 168 µM) | MIC values [3]: 24.5 µg/mL (≈ 83.8 µM) | MIC values [4]: 196 µg/mL (≈ 671 µM)

CC(=O)O[C@H]1C[C@@]2(C)[C@@H](C[C@@H](O)[C@H]3[C@@]4(C)CC[C@@H](O)[C@@H](C)[C@@H]4CC[C@@]32C)/C1=C(\CCC=C(C)C)C(=O)O [Fusidic acid]
MIC [1, 12]: 2.25 µg/mL | MIC values [2]: Resistant | MIC [3, 14]: 0.06 µg/mL | MIC [4, 15]: 0.06 µg/mL

Colistin
MIC values [1]: 3.12 µg/mL | MIC values [2]: 3.12 µg/mL | MIC values [3]: 12.5 µg/mL | MIC values [4]: 3.12 µg/mL | change in MIC (resistance development) ([9]; A. baumannii): up to 8 fold | MIC after 30 days of treatment ([9]; A. baumannii): 25 µg/mL | MIC after 30 days of treatment ([9]; A. baumannii, listed as colistin): 21.6 µM | MIC at start of resistance study ([9]; A. baumannii, before prolonged treatment): 3.12 μg mL^−1 and 2.7 μmol L^−1 | change in MIC (resistance development) [10]: No significant resistance development

PHVALKPGKLKFIIPSPKRPVKLLSGGNTLHLVSTTKT [r(P)ApoBL^Pro]
MIC ([1]; ATCC 17878): 5 µM | MIC ([2]; ATCC 700603): 10 µM | MIC ([3]; ATCC 12600): 20 µM | MIC ([4]; ATCC 35984): 10 µM | MIC [5]: 20 µM | MIC [6]: 5 µM | MIC [7]: 20 µM | stability in the presence of serum [8]: degraded within minutes

CC[C@H]1OC(=O)[C@H](C)[C@@H](O[C@H]2C[C@@](C)(OC)[C@@H](O)[C@H](C)O2)[C@H](C)[C@@H](O[C@@H]2O[C@H](C)C[C@H](N(C)C)[C@H]2O)[C@](C)(O)C[C@@H](C)C(=O)[C@H](C)[C@@H](O)[C@]1(C)O [Erytromycin]
MIC [1, 12]: 125 µg/mL | MIC [2, 13]: 7.8 µg/mL | MIC [3, 14]: 15 µg/mL | MIC values [4]: Resistant

O=C(OOC(=O)c1ccccc1)c1ccccc1 [Benzoyl Peroxide]
MIC [1, 12]: 32 µg/mL | MIC values [2]: Resistant | MIC [3, 14]: 16 µg/mL | MIC [4, 15]: 16 µg/mL

CN[C@H](CC(C)C)C(=O)N[C@H]1C(=O)N[C@@H](CC(N)=O)C(=O)N[C@H]2C(=O)N[C@H]3C(=O)N[C@H](C(=O)N[C@H](C(=O)O)c4cc(O)cc(O)c4-c4cc3ccc4O)[C@H](O)c3ccc(c(Cl)c3)Oc3cc2cc(c3O[C@@H]2O[C@H](CO)[C@@H](O)[C@H](O)[C@H]2O[C@H]2C[C@](C)(N)[C@H](O)[C@H](C)O2)Oc2ccc(cc2Cl)[C@H]1O [Vancomycin]
MIC [1, 12]: 50 µg/mL | MIC [2, 13]: 50 µg/mL | MIC [3, 14]: 0.78 µg/mL | MIC [4, 15]: 1.56 µg/mL

CC[C@@H](C)[C@@H](NC(=O)[C@H]1CCCN1C(=O)[C@@H](CO)NC(=O)[C@H]1CCCN1C(=O)[C@@H](CCCCN)NC(=O)[C@@H](CCCNC(=N)N)NC(=O)[C@H]1CCCN1C(=O)[C@H](NC(=O)[C@@H](CCCCN)NC(=O)[C@@H](CC(C)C)NC(=O)[C@@H](CC(C)C)NC(=O)[C@@H](CO)NC(=O)CN)C(C)C)C(=O)N[C@@H](C(=O)N[C@H](Cc1ccccc1)C(=O)N[C@H](CCCCN)C(=O)N[C@H](CC(C)C)C(=O)N[C@H](CCCCN)C(=O)NCC(=O)N1CCC[C@@H]1C(=O)N[C@H](CCCCN)C(=O)N[C@H](CC(C)C)C(=O)N[C@H](C)C(=O)N[C@@H](C(=O)N[C@H](Cc1c[nH]cn1)C(=O)N1CCC[C@@H]1C(=O)O)C(C)C)[C@H](C)CC [(ri)-r(P)ApoBS^Pro] (H-G[dS][dL][dL][dK][dV][dP][dR][dK][dP][dS][dP][dI][dI][dF][dK][dL][dK]G[dP][dK][dL][dA][dV][dH][dP]-OH; N-terminus and C-terminus assumed)
MIC ([3]; ATCC 12600): 20 µM | MIC ([4]; ATCC 35984): 10 µM | MIC [6]: 10 µM (≈ 28.2 µg/mL) | MIC [7]: 10 µM (≈ 28.2 µg/mL) | remaining at 4 h, 2 mg mL^-1 ([8]; bovine): ~50%

Gentamicin
MIC values [1]: 0.25 µg/mL | MIC values [2]: 0.5 µg/mL | MIC values [3]: 1 µg/mL | MIC values [4]: 2 µg/mL | change in MIC (resistance development) ([9]; A. baumannii): did not change | change in MIC (resistance development) [10]: up to 16 fold
